Results from patent US20060229256A1, “Enternal administration of arginine and glutamine for abnormal vascular proliferation” (Bristol-Myers Squibb Company, priority 2003, published 2006).
“And” between values parts separate entries of the source, which are not always exact repeats. Identical values can stand only once.

Experiments:
[1] = system: vascular endothelial cell growth factor (VEGF) in human retinal pigment epithelial cells (hRPE); experiment: VEGF secretion by human retinal pigment epithelial cells (VEGF ELISA of culture medium); type: cell-based
Experimental: Human eyes were obtained from the National Disease Resource Interchange within 36 h of death. hRPE cells were prepared and maintained as described by Grant et al., in Curr. Eye Res., 9(4):323-335 (1990), and Enzmann et al., in Transpl Immunol, March 7(1): 9-14 (1999). For cell culture experiments, hRPE from passages 3-5 were used. All tissue culture media was purchased from Mediatech, Inc., Herndon, Fla. hRPE cultures were placed in glutamine-free medium for 24 hrs and then were exposed either to 0, 0.5, 1, 2.5 or 5 mg/ml of Arg-gln dipeptide for 48 hrs. At the end of 48 hrs, VEGF content of the culture medium containing the hRPE cells was measured using the Quantikine® Human VEGF Immunoassay ELISA kit (R&D Systems, Minneapolis, Minn.).

[2] = system: neonatal mouse model of oxygen-induced retinopathy; experiment: Neonatal mouse model of oxygen-induced retinopathy, intra-peritoneal injection, pre-retinal nuclei count and retinal flat mounts; type: in vivo; conditions: for reduction in preretinal nuclei / preretinal vascularization: 5 g/kg/d intra-peritoneal, twice daily, P12-P17, versus vehicle
Experimental: (§1) In the neonatal mouse model of oxygen-induced retinopathy, 7-day old mice were placed with their nursing dams in a 75% oxygen atmosphere for 5 days. (Smith et al., Invest Ophthalmol Vis Sci., 35(1):101-111 (1994). Mouse pups received twice daily intra-peritoneal injections (50 μl) starting on postnatal day 12 (P12) and continuing through postnatal day 17 (P17). In one experiment, injections included vehicle (0.9% sodium chloride) and the test compounds Ala-gly (5 g/kg/d), Arg-gln dipeptide (5 g/kg/d) and in a second experiment, different doses of Arg-gln (1.0, 2.5 and 5 g/kg/d) were tested.
After the fifth day following return to normoxia (P17), the animals were euthanized by injection of a lethal dose of a combination of ketamine (70 mg/kg body weight) and xylazine (15 mg/kg body weight) followed by cervical dislocation. The eyes were removed and fixed in 4% paraformaldehyde, embedded in paraffin, and sectioned as previously described. (Smith et al., Id.) Pre-retinal nuclei were counted by masked observers. Efficacy of treatment was calculated as the percent average nuclei per section in the eyes of Arg-Gln treated animals versus control animals.
All data represent the mean±SEM. ANOVA was used to evaluate differences among groups, and individual contrasts were done using Student t-tests with Bonferroni correction was used to determine the significance between groups.

VEGF mRNA = VEGF mRNA in retina of oxygen-induced retinopathy mice (real-time RT-PCR); type: in vivo, mouse; conditions: 5 g/kg/d parenteral, day 5 after removal from high oxygen, P=0.007
Experimental: as §1
For total RNA isolations from retina the animals were sacrificed and the eyes removed. The retina were then dissected away from the eye and stored in RNAlater® buffer (Ambion, Austin, Tex.) at 4° C. for subsequent isolation of protein or RNA.
VEGF protein concentration was determined from isolated mouse retinas using the Quantikine® Human VEGF Immunoassay ELISA kit (R&D Systems, Minneapolis, Minn.). Pups were treated with the 5 g/kg/d dose of dipeptide and at varying time points after the pups were removed from oxygen on day 12. Eyes were enucleated at 0.5, 1 and 5 days post removal from high oxygen (n=14 eyes for each data point). Vehicle treated animals were compared to dipeptide-treated animals. […]

[3] = system: neonatal mouse model of oxygen-induced retinopathy; experiment: Neonatal mouse model of oxygen-induced retinopathy, gavage (enteral) administration, pre-retinal nuclei count; type: in vivo; conditions: gavage, 1, 2.5 and 5 gm/kg·day, P12-P17, versus vehicle; dose/response, highest effectiveness at 5 gm/kg·day
Source text: In the neonatal mouse model of oxygen-induced retinopathy, 7-day old mice were placed with their nursing dams in a 75% oxygen atmosphere for 5 days. Mouse pups received twice a day gavage feedings of dipeptide or control solution (50 microliter) starting on postnatal day 12 (P12) and continuing through postnatal day 17 (P17). Gavage feeds included vehicle (0.9% sodium chloride) and the test compounds and different doses of Arg-Gln (1.0, 2.5 and 5 gm/kg/d). The daily dosage of the dipeptide was divided evenly between the two daily gavage feedings.
After the fifth day following return to normoxia (P17), the animals were euthanized by injection of a lethal dose of a combination of ketamine (70 mg/kg body weight) and xylazine (15 mg/kg body weight) followed by cervical dislocation. The eyes were removed and fixed in 4% paraformaldehyde, embedded in paraffin, and sectioned. Pre-retinal nuclei were counted by masked observers. Efficacy of treatment was calculated as the percent average nuclei per section in the eyes of Arg-Gln treated animals versus control animals.

Substance	effect on VEGF secretion as a function of the level of Arg-gln (FIG. 1) ([1]; 0-5 mg/ml, 48 hrs)	decrease in soluble VEGF expression into the culture medium ([1]; 1.5 mM Arg-gln, 48 hrs exposure after 24 hrs in glutamine-free medium, P=0.002) [%]	effect on preretinal nuclei, all doses ([2]; 1.0, 2.5 and 5.0 g/kg/d intra-peritoneal, five days of treatment, P<0.00001)	effect on preretinal nuclei at the lowest dose tested (FIG. 2) ([2]; 1 gm/kg·day intra-peritoneal, P12-P17)	reduction in preretinal nuclei / preretinal vascularization [2]	reduction in preretinal nuclei / preretinal vascularization ([2]; listed as Arg-gln dipeptide) [%]	retinal flat mounts (fluorescently labeled dextran): neovascular tufts and vascular leakage ([2]; Arg-gln treated pups compared to control dipeptide Ala-gly treated pups)	VEGF mRNA in retina versus vehicle-treated pups (VEGF mRNA)	VEGF mRNA in retina versus vehicle-treated pups (VEGF mRNA; listed as Arg-gln dipeptide)	average nuclei per section in the eyes (FIG. 4) [3]
arginyl-glutamine dipeptide [Arg-gln]	statistically significant dose-dependent decrease	52.3±6.2	significant reduction	significant reduction	~80% and 82±7%	80	reduced neovascular tufts and vascular leakage	significant reduction	much lower	decreased at all levels of administration
Ala-gly [reference compound]	–	–	–	–	2±5%	–	–	–	–	–
